We go through 27 compounds from patent US20210101881A1 (Ancureall Pharmaceutical (Shanghai) Co., Ltd., priority 2018, published 2021).

Molecules are shown by their SMILES. Where two headings read alike, the source gives them in different places.

In the experiment the test system is MOLM13 cells. The experiment in a line: Growth inhibition of CDK9-positive cell line MOLM13 in vitro (CCK8/MTT assay). The note with it: Homo sapiens. It is filed as cell-based, human. The procedure:
1. MOLM13 cell line and cell culture MOLM13 is a CDK9-positive human acute myeloid leukemia cell line from DMSZ. Suspension culture was carried out in RPMI1640 (Gibco) medium with 10% fetal bovine serum (Gibco), 1% penicillin-streptomycin and 2 mM glutamine.
Suspended MOLM-13 cells in logarithmic growth phase were collected by centrifugation (1700 rpm, 3 minutes), the supernatant was discarded, and the cells were counted. A solution with a cell concentration of 2×10^5 cells per milliliter was formulated and inoculated in a 96-well plate (Corning) with 100 microliters per well. The plate was incubated at 37° C., 5% CO2 overnight. On the next day, the test compound was added to the cultured cells in two parallel wells. […]
The present compound and the control compounds were respectively dissolved in DMSO (Sigma).
When the solvent control well became dark yellow, the OD450 nm absorption value was measured, and the cell growth rate was calculated according to the following formula. Cell growth rate %=100*(T−T0)/(C−T0), wherein T=the optical density value of the drug-treated well—the optical density value of the blank control well, T0=the optical density value of the well before drug treatment—the optical density value of the blank control well, C=the optical density value of the solvent control well—the optical density value of the blank control well. […] The assay was repeated three times, and the data was subjected to a biological statistical analysis.

Setting [1] is: MOLM-13, MOLM13 cells, cultured 3 to 6 days, CCK8, read-out: IC50 of the compound for inhibiting cell growth, MOLM13 cells.
[2] abbreviates: MOLM-13, read-out: IC50 of the compound for inhibiting cell growth, MOLM13 cells.

With `COc1cc(F)ccc1-c1cc(Nc2cc(CS(C)(=N)=O)ccn2)ncc1F` (stereo not drawn) [BAY1251125, reference compound], the IC50 under setting [1] was in the range of 10 to 100 nM.

Consider `NC(=O)c1cn(-c2ccnc(Nc3ccc(F)c(Br)c3)n2)c2ccccc12` [Compound 1, 1-[2-(3-bromo-4-fluoro-phenylamino)-pyrimidin-4-yl]-1H-indole-3-carboxamide], for which the 50% inhibitory concentration (IC50) under setting [1] was greater than 1000 nM. Regarding `NC(=O)c1cn(-c2ccnc(Nc3ccc(C(F)(F)F)c(Cl)c3)n2)c2ccccc12` [Compound 2, 1-[2-(3-chloro-4-trifluoromethyl-phenylamino)-pyrimidin-4-yl]-1H-indole-3-carboxamide], the IC50 under setting [1] is greater than 1000 nM. On the same count and under the same terms, the value for `NC(=O)c1cn(-c2ccnc(Nc3cccc(F)c3Cl)n2)c2ccccc12` [Compound 3, 1-[2-(2-chloro-3-fluoro-phenylamino)-pyrimidin-4-yl]-1H-indole-3-carboxamide] was greater than 1000 nM; that for `NC(=O)c1cn(-c2ccnc(Nc3cc(F)cc(C(F)(F)F)c3)n2)c2ccccc12` [Compound 4, 1-[2-(3-fluoro-5-trifluoromethyl-phenylamino)-pyrimidin-4-yl]-1H-indole-3-carboxamide] was greater than 1000 nM. As to `COc1ccc(Nc2nccc(-n3cc(C(N)=O)c4ccccc43)n2)cc1OC` [Compound 5, 1-[2-(3,4-methoxy-phenylamino)-pyrimidin-4-yl]-1H-indole-3-carboxamide], under setting [1], the half-inhibitory concentration (IC50) is greater than 1000 nM. For the compound `NC(=O)c1cn(-c2ccnc(Nc3ccc(F)c([N+](=O)[O-])c3)n2)c2ccccc12` [Compound 6, 1-[2-(4-fluoro-3-nitro-phenylamino)-pyrimidin-4-yl]-1H-indole-3-carboxamide], the 50% inhibitory concentration (IC50) under setting [1] is greater than 1000 nM.

Take `COc1cc(F)c([N+](=O)[O-])cc1Nc1nccc(-n2cc(C(N)=O)c3ccccc32)n1` [Compound 7, 1-[2-(4-fluoro-2-methoxy-5-nitro-phenylamino)-pyrimidin-4-yl]-1H-indole-3-carboxamide]: the IC50 under setting [1] is 10 to 100 nM. With `CN(C)CCNc1ccc(Nc2nccc(-n3cc(C(N)=O)c4ccccc43)n2)cc1` [Compound 8, 1-{2-[4-(2-dimethylamino-ethylamino)-phenylamino]-pyrimidin-4-yl}-1H-indole-3-carboxamide], under setting [1], the 50% inhibitory concentration (IC50) lay in the range of 10 to 100 nM. Still for that read-out and setting: for `NC(=O)c1cn(-c2ccnc(Nc3ccc(NCCN4CCOCC4)cc3)n2)c2ccccc12` [Compound 9, 1-{2-[4-(2-morpholin-4-yl-ethylamino)-phenylamino]-pyrimidin-4-yl}-1H-indole-3-carboxamide] the value was 10 to 100 nM; for `NC(=O)c1cn(-c2ccnc(Nc3ccc(NCCN4CCCCC4)cc3)n2)c2ccccc12` [Compound 10, 1-{2-[4-(2-piperidin-1-yl-ethylamino)-phenylamino]-pyrimidin-4-yl}-1H-indole-3-carboxamide], 10 to 100 nM; for `CN1CCN(CCNc2ccc(Nc3nccc(-n4cc(C(N)=O)c5ccccc54)n3)cc2)CC1` [Compound 11, 1-(2-{4-[2-(4-methyl-piperazin-1-yl)-ethylamino]-phenylamino}-pyrimidin-4-yl)-1H-indole-3-carboxamide], 10 to 100 nM.

For the compound `NC(=O)c1cn(-c2ccnc(Nc3ccc(NC4CCNCC4)cc3)n2)c2ccccc12` [Compound 12, 1-{2-[4-(piperidin-4-amino)-phenylamino]-pyrimidin-4-yl}-1H-indole-3-carboxamide], the 50% inhibitory concentration (IC50) under setting [1] was 10 to 100 nM. For the compound `NC(=O)c1cn(-c2ccnc(Nc3ccc(NCCN4CCCC4)cc3)n2)c2ccccc12` [Compound 13, 1-{2-[4-(2-pyrrolidin-1-yl-ethylamino)-phenylamino]-pyrimidin-4-yl}-1H-indole-3-carboxamide], the IC50 under setting [1] fell in the range of 10 to 100 nM.

Consider `NC(=O)c1cn(-c2ccnc(Nc3ccc(CN4CCOCC4)cc3)n2)c2ccccc12` [Compound 14, 1-[2-(4-morpholin-4-methyl-phenylamino)-pyrimidin-4-yl]-1H-indole-3-carboxamide], for which, under setting [1], the IC50 was 10 to 100 nM.

Take `CC(=O)N1CCN(Cc2ccc(Nc3nccc(-n4cc(C(N)=O)c5ccccc54)n3)cc2)CC1` [Compound 15, 1-{2-[4-(4-acetyl-piperazin-1-methyl)-phenylamino]-pyrimidin-4-yl}-1H-indole-3-carboxamide]: under setting [1], the half-inhibitory concentration (IC50) lay within 10 to 100 nM. Regarding `COc1ccc(Nc2nccc(-n3cc(C(N)=O)c4ccccc43)n2)cc1` [Compound 17, 1-[2-(4-methoxy-phenylamino)-pyrimidin-4-yl]-1H-indole-3-carboxamide], the half-inhibitory concentration (IC50) under setting [1] was 100 to 1000 nM. On to `CN1CCN(CCOc2ccc(Nc3nccc(-n4cc(C(N)=O)c5ccccc54)n3)cc2)CC1` [Compound 18, 1-(2-{4-[2-(4-methyl-piperazin-1-yl)-ethoxy]-phenylamino}-pyrimidin-4-yl)-1H-indole-3-carboxamide], for which the IC50 under setting [2] lay within 10 to 100 nM. For `CN(C)CCOc1ccc(Nc2nccc(-n3cc(C(N)=O)c4ccccc43)n2)cc1` [Compound 19, 1-{2-[4-(2-dimethylamino-ethoxy)-phenylamino]-pyrimidin-4-yl}-1H-indole-3-carboxamide], the IC50 under setting [1] is 10 to 100 nM. Take `NC(=O)c1cn(-c2ccnc(Nc3ccc(OCCN4CCCC4)cc3)n2)c2ccccc12` [Compound 20, 1-{2-[4-(2-pyrrolidin-1-yl-ethoxy)-phenylamino]-pyrimidin-4-yl}-1H-indole-3-carboxamide]: the 50% inhibitory concentration (IC50) under setting [1] was 10 to 100 nM. In the case of `NC(=O)c1cn(-c2ccnc(Nc3ccc(OCCN4CCOCC4)cc3)n2)c2ccccc12` [Compound 21, 1-{2-[4-(2-morpholin-4-yl-ethoxy)-phenylamino]-pyrimidin-4-yl}-1H-indole-3-carboxamide], the IC50 under setting [1] lay in the range of 10 to 100 nM. `NC(=O)c1cn(-c2ccnc(Nc3ccc(OCCN4CCNCC4)cc3)n2)c2ccccc12` [Compound 22, 1-(2-{4-[2-(4-piperazin-1-yl)-ethoxy]-phenylamino]-pyrimidin-4-yl}-1H-indole-3-carboxamide]: the concentration for half-maximal inhibition (IC50) under setting [1] is 10 to 100 nM.

Take `CN(C)CCSc1ccc(Nc2nccc(-n3cc(C(N)=O)c4ccccc43)n2)cc1` [Compound 23, 1-{2-[4-(2-dimethylamino-ethylthio)-phenylamino]-pyrimidin-4-yl}-1H-indole-3-carboxamide]: the 50% inhibitory concentration (IC50) under setting [1] lay within 10 to 100 nM. For the compound `NC(=O)c1cn(-c2ccnc(Nc3ccc(N4CCC(N5CCCCC5)CC4)cc3)n2)c2ccccc12` [Compound 24, 1-[2-(4-[1,4′]bipiperidin-1′-yl-phenylamino)-pyrimidin-4-yl]-1H-indole-3-carboxamide], the IC50 under setting [1] lay within 10 to 100 nM. Still for that read-out and setting: the value for `NC(=O)c1cn(-c2ccnc(Nc3ccc(N4CCN(CCO)CC4)cc3)n2)c2ccccc12` [Compound 25, 1-(2-{4-[4-(2-hydroxy-ethyl)-piperazin-1-yl]-phenylamino}-pyrimidin-4-yl)-1H-indole-3-carboxamide] was 10 to 100 nM. In the case of `COCCN1CCN(c2ccc(Nc3nccc(-n4cc(C(N)=O)c5ccccc54)n3)cc2)CC1` [Compound 26, 1-(2-{4-[4-(2-methoxy-ethyl)-piperazin-1-yl]-phenylamino}-pyrimidin-4-yl)-1H-indole-3-carboxamide], under setting [1], the 50% inhibitory concentration (IC50) lay in the range of 10 to 100 nM. For the compound `NC(=O)c1cn(-c2ccnc(Nc3ccc(N4CCNCC4)cc3)n2)c2ccccc12` [Compound 27, 1-[2-(4-piperazin-1-yl-phenylamino)-pyrimidin-4-yl]-1H-indole-3-carboxamide], the IC50 under setting [2] was 1 to 10 nM.
